One may read the Kp as tissue or fluid exposure divided by exposure in the circulation.

Molecules are shown by their SMILES. “And” between values parts separate entries of the source, which are not always exact repeats. Equal entries are not always repeated. “Also recorded” adds a separate entry of the source. Marks after values point to notes of the source that are not given here.

The subject of series [1] is central nervous system (CNS) function. To be noted: doses ≤100 mg/kg orally; EMEA assessment report for Adcirca (WC500069602); cited from earlier work.
For series [2], the system named is rat model of embolic stroke. To be noted: Zhang et al. (2006); cited from earlier work.
The test system of series [3] is maternal-separated rat pups. Particulars: Baek et al. (2011); cited from earlier work.
For a further series, the system named is pTau. The experiment in a line: Immunohistochemistry of pTau (PHF-1, AT8) in J20 mice. Particulars: J20 mice treated for 10 weeks. The series is classed as in vivo. On the procedure:
(§1) Results were compared with those obtained from age-matched negative littermates (controls). To test the effect of the PDE5 inhibitors in cognition capacity related to aging, a second treatment was carried out using 10-12 month-old non-transgenic (wild type) mice on an inbred C57/B6xSJL genetic background.
Twenty four hours after the fear conditioning test, animals (n=5, per group) were sacrificed and the brains removed for biochemical studies. The cortex and hippocampus were dissected, homogenized, and processed as described below for subsequent western blot analysis. Under xylazine/ketamine anesthesia, animals (n=4 per group) were perfused transcardially with saline and 4% paraformaldehyde in phosphate buffer (PB). After perfusion, brains were removed, post-fixed in the same fixative solution for 1 h at room temperature and cryoprotected in 30% sucrose solution in PB overnight at 4 °C. […]
For p-tau staining, slides were incubated in blocking solution (3% milk in TBS) and incubated overnight with primary antibody AT8 (1:50 v/v, Pierce, Woburn, MA, USA) or PHF1 (1:100 v/v, Dr. Peter Davies, Albert Einstein College, Bronx, NY, USA) at 4 °C. […] Fluorescence signals were detected with confocal microscope LSM 510 Meta (Carl Zeiss, Germany); objective Plan-neofluar 40x/1.3 oil DIC. Sections were evaluated in Z-series (0.4 microm steps) using LSM 510 Meta software.

For series [4] the following is noted: EMEA scientific discussion for Cialis (WC500026314); cited from earlier work.
For the next series, the system named is pAkt. The experiment in a line: Western blot of pAkt in hippocampus of J20 mice. In kind it is in vivo. Particulars: J20 mice treated for 10 weeks, vs saline. On the procedure:
as §1
Twenty four hours after the fear conditioning test, animals (n=5, per group) were sacrificed and the brains removed for biochemical studies. The cortex and hippocampus were dissected, homogenized, and processed as described below for subsequent western blot analysis. […]
Total tissue homogenates were obtained by homogenizing the hippocampus in a cold lysis buffer with protease inhibitors (0.2 M NaCl, 0.1 M HEPES, 10% glycerol, 200 mM NaF, 2 mM Na4P2O7, 5 mM EDTA, 1 mM EGTA, 2 mM DTT, 0.5 mM PMSF, 1 mM Na3VO4, 1 mM benzamidine, 10 µg/ml leupeptin, 400 U/ml aprotinin), centrifuged at 14,000 x g 4 °C for 20 minutes and the supernatant was aliquoted and stored at -80 °C. Total protein concentrations were determined using the BioRad Bradford protein assay (BioRad Laboratories).
Protein samples were mixed with an equal volume of 2 x Laemmli sample buffer, resolved onto SDS-polyacrylamide gels and transferred to nitrocellulose membrane. […] Quantity OneTM software v.4.6.3 (Bio-Rad) was used for quantification.
On the technique in general: In western blotting, separated proteins are transferred to a membrane and probed.

Series [5] can be described thus: Serum and brain levels of tadalafil after oral administration (HPLC-MS). To be noted: for logBB (brain): average of logBB data from Ctx, Str and Hip, n=6, spread = Standard Deviation. In kind it is in vivo, Mouse. On the procedure:
BB is the ratio of brain versus serum concentration. […] In addition, considering values in the three brain regions, the compound distribution looks quite uniform. Table 2. Blood-brain barrier permeability, as logBB, for Tadalafil
For analysis samples were prepared as follows: • 100 µl of serum were treated with 300 µl of 1% formic acid in acetonitrile. Mixture was vortexed for 5 minutes. The supernatant after centrifugation was filtered using a HybridSPE™ (Supelco, Bellefonte, USA) cartridge and the eluate was dried under an air stream. The powder was reconstituted in 100 µl of 50:50 (v/v) ammonium formate (pH=3):acetonitrile. After centrifugation the supernatant was used for analysis. • 100 mg of brain sample were treated with 600 µl of 1% formic acid in acetonitrile. The mixture was sonicated for 10 seconds and centrifuged for 5 minutes. The supernatant after centrifugation was filtered using a HybridSPE™ (Supelco, Bellefonte, USA) cartridge and the eluate was dried under an air stream. The powder was reconstituted in 100 µl of 50:50 (v/v) ammonium formate (pH=3):acetonitrile. After centrifugation the supernatant was used for analysis.

For series [6] the following is noted: quoted from WO2010/074783, page 109; cited from earlier work.
A further series concerns gerbils. To be noted: Ko et al. (2009); cited from earlier work.
[7] abbreviates: BB = ratio of brain versus serum concentration, n=6 treated mice, (Standard Deviation).
Setting [8] is: concentration of tadalafil 90 minutes after oral administration of Cialis (15 mg/Kg), individual mice.

As for `CN1CC(=O)N2[C@H](c3ccc4c(c3)OCO4)c3[nH]c4ccccc4c3C[C@@H]2C1=O` [tadalafil, (6R-trans)-6-(1,3-benzodioxol-5-yl)-2,3,6,7,12,12a-hexahydro-2-methyl-pyrazino [1',2':1,6] pyrido [3,4-b]indole-1,4-dione], in [1], the “effects on central nervous system (CNS) function” value is “no effects”. The neurological functional recovery result in series [2] was “improves neurological functional recovery”. Also, in series [3], the “depressive symptoms, memory impairment, apoptosis and cell proliferation in the hippocampus” value was “improves depressive symptoms, ameliorates memory impairment, as well as suppresses apoptosis and enhances cell proliferation”. The “pTau levels, PHF-1 anti-p-Tau Ser-396/404 antibody labeling” value in the series on pTau (hippocampal and cortical slices) was “decrease in pTau levels; also recorded: much more marked than in animals treated with sildenafil”. In the series with pTau (hippocampus slices), the “pTau pathology, anti-pTau antibody recognizing Ser202 and Thr205 (AT8) labeling” value is “lesser pTau pathology in animals treated with tadalafil than with sildenafil”. Besides, the “observed in the central nervous system” value in [4] is listed as “not observed”. In the series on pAkt, the “level of pAkt” value is on record as “reduction was reverted; also recorded: higher than that of sildenafil”. Also, in series [5] (setting [7]), the “logBB (Ctx)” value is on record as -0.89 (0.16)^b, the “logBB (Hip)” value is recorded as -0.81 (0.17)^b and the “logBB (Str)” value is -0.98 (0.13)^b. Also, in series [5] (Hippocampus, 90 minutes after oral administration of Cialis (15 mg/Kg), individual mice), the “Hip” value is 0.45 µM and 0.91 µM and 1.54 µM and 2.19 µM and 1.48 µM and 1.35 µM. In series [5] (Prefrontal Cortex, 90 minutes after oral administration of Cialis (15 mg/Kg), individual mice), the “Ctx” value was 0.61 µM and 1.25 µM and 1.22 µM and 1.35 µM and 0.73 µM and 0.91 µM. The “Str” value in series [5] (Striatum, 90 minutes after oral administration of Cialis (15 mg/Kg), individual mice) is 0.39 µM and 0.82 µM and 1.09 µM (2×) and 0.72 µM and 0.93 µM. In addition, in series [5], the “logBB (brain)” value is recorded as -0.89+/-0.09. The “logBB (brain)” value in series [5] (listed as Tadalafil) was -0.89 (0.09)^b. In series [5] (setting [8]), the “Serum (µM)” value is given as 4,95 µM; the concentration at 90 min was 9.65 µM and 7.27 µM and 10.23 µM and 8.10 µM. For the same compound, the Kp at 90 min in [5] (mouse, oral, 15 mg/Kg, from logBB of the three brain areas) is around 0.12. For the same compound, the concentration at 90 min in [5] (mouse, serum, oral, 15 mg/Kg, concentration of tadalafil 90 minutes after oral administration of Cialis (15 mg/Kg), individual mice) is 6.53 µM. In addition, the “ability to cross the BBB” value in series [6] is on record as “unable to cross the BBB”. Further, the short-term memory result with gerbils is “improves short-term memory”.

`CCCc1nn(C)c2c(=O)[nH]c(-c3cc(S(=O)(=O)N4CCN(C)CC4)ccc3OCC)nc12` [sildenafil]: the “level of pAkt” value in the series with pAkt is given as “reduction was reverted”.

Values taken from EP2535049A1 (Proyecto de Biomedicina Cima, S.L., priority 2011, dated 2012).
